The values below are quoted from earlier work in US12350251B2, “Sexual health enhancement composition” (Rev Pharmaceuticals, Inc., priority 2016, dated 2025).

Assay in data set [1]: not given
The source holds these as a separate data set.

Assay in data set [2]: not given
This is another data set of the same source.

A further data set deals with cAMP production. The note with it: treated cells.
The test system of a further data set is human CC. The note with it: in vitro, alone; read-out: EC50 of relaxation of human CC.

Molecules are shown by their SMILES. Like-named read-outs stand apart in the source and are kept apart here.

For orientation: Cmax means the maximum level reached in the sampled fluid or tissue. With `Cl.N=C(N)NCCC[C@H](N)C(=O)O` [L-arginine hydrochloride (HCl), L-arginine hydrochloride], the Cmax (6 gm oral) is 310 µM. In addition, the Half-life (IV) is 1 h and the Half-life (PO) was 1.5 h. In data set [1] (6 gm doses), the changes in hemodynamics result was “No significant changes”. Besides, the “urinary cGMP and nitrate excretion” value in data set [1] (about 6 gm to about 30 gm IV) was “significant increases”. The “blood pressure and total peripheral resistance” value in data set [1] (after 30 gm IV) is “significantly decreased”. Consider `N=C(N)NCCC[C@H](N)C(=O)O` [L-arginine], for which, in data set [1] (IV infusion or oral, about 6 to about 30 gm), the “peripheral vasodilation in humans” value is on record as “induced peripheral vasodilation”.

In the case of `C=C[C@@]1(C)CC(=O)[C@]2(O)[C@@]3(C)[C@@H](O)CCC(C)(C)[C@@H]3[C@H](O)[C@H](OC(C)=O)[C@@]2(C)O1` [forskolin], in data set [2], the water solubility entry was “water soluble”. Turning to `COc1ccc(Cc2nccc3cc(OC)c(OC)cc23)cc1OC` [papaverine], the cAMP production result in the data set on cAMP production is listed as “unaffected”. For `Cc1ccc(N(CC2=NCCN2)c2cccc(O)c2)cc1` [phentolamine], in the data set on cAMP production, the cAMP production result was “unaffected”.

As usually defined, the EC50 is the concentration needed to bring the measured effect to its halfway point. For `CCCCC[C@H](O)/C=C/[C@H]1[C@H](O)CC(=O)[C@@H]1CCCCCCC(=O)O` [prostaglandin E1], in the data set with human CC, the EC50 was ~16 nM.
